Results as given in patent US8128948B1, “Compositions and methods for attracting Anastrepha species” (The United States of America as represented by the …, priority 2007, dated 2012).

Tests used:
Type in all cases: physicochemical
[1] = Hydrolysis of the dehydration analog; settings: for distribution of products (rel. % of loss; x±s; n=6): hydrolysis of the dehydration analog, 3 day, pH 5.5, 35° C.
[2] = Batch hydrolysis of suspensolide in aqueous buffers
Method: Buffers at 25° C. were transferred (1 mL) to 9-mm amber crimp-top (Teflon®-sealed) 2-mL GC vials. Suspensolide in anhydrous acetonitrile or methanol (50 μL) was added to afford initial aqueous concentrations of 0.9 mM and the solution was rapidly mixed for 10 s on a vortex Genie® mixer. Aqueous samples (10 μL) were removed with a 25-μL syringe and combined with 2 μL ACN containing 6 μg (+)-sclareolide as an external standard for HPLC.
GC was used to quantify lactones at the conclusion of each experiment. Hexane (1 mL), containing […] of tetradecane as an internal standard, was added to the vials and extractable analytes were removed from the water by rapidly mixing for 2 min on a vortex Genie® mixer. Emulsions were broken with NaCl, after which the hexane layer was transferred to vials for analysis by GC. The remaining solution was concentrated to dryness via Speed Vac® and dissolved in a methanolic solution of diazomethane. Extraction with pentane and subsequently H2O (0.5 mL each) yielded methyl esters amenable to GC within the organic phase. Initial suspensolide concentrations were measured (quadruplicate) via analogous introduction into 1 mL hexane+internal standard.

[3] = 1H-NMR monitored hydrolysis of suspensolide; settings: 36 μL acetonitrile-d3 + 4 μl D2O; 27° C.
Method: Experiments were performed in a 2.0 mm capillary at 27° C. using a Bruker Avance 500 Console, Magnex 11.75 T/54 mm Magnet, and a 2.5 mm TXI probe (non spun). Spectra (64 scans) were acquired with 2.5 acquisition time and processed with ½ Hz line broadening.
Results and Discussion: Pentane extracts of male salivary glands that were added to water (pH 5.5) and rapidly stirred for 5 min at 25° C. yielded products within both phases that matched those obtained from pentane extraction of crops and oral secretions (FIG. 5). ^1H-Nuclear Magnetic Resonance (NMR) spectroscopy was then employed to directly observe the hydrolysis; the original vinyl and methyl proton signals disappeared over 3 h after a 4 μL addition of D2O to suspensolide in 36 μL acetonitrile-d3 (FIG. 6). In comparison, the loss of suspensolide in batch hydrolysis studies occurred much more rapidly (<2 min) over pH 3-10.

For `C=C[C@@]1(C)CCC[C@]2(C)OC(=O)C[C@@H]12` [anastrephin, reference compound], which “distribution of products (rel. % of loss; x±s; n=6)” value [1] is on record?
Its value is 17.3±4.2%.

Which loss on hydrolysis ([1]; 3 day time course, pH 5.5 and 35° C.) does the source give for `C=CC1(C)CCCC(C)=C1CC(=O)O` (stereo not shown) [dehydration analog, 2,6-dimethyl-6-vinyl-cyclohexeneacetic acid] here?
The loss on hydrolysis was roughly 15%.

For `C=CC1(C)CCCC2(C)OC(=O)CC12` (stereo not shown) [epianastrephin, reference compound], which “distribution of products (rel. % of loss; x±s; n=6)” value [1] is on record?
Its value is 1.7±1.2%.

Which results are given for `C/C1=C/COC(=O)C/C=C(/C)CCC1` [suspensolide, (3E,8E)-suspensolide]?
level of 7a-epimer “cis-fused” equivalents among hydrolysis products ([2]; FIG. 4): < 5%; epianastrephin to anastrephin ratio of γ-hydroxy acids formed by hydrolysis ([2]; in 18OH2 at pH 5, FIG. 13): ~2.5; time for loss of suspensolide in batch hydrolysis ([2]; over pH 3-10): < 2 min; time for hydrolysis to product distribution III>II>>IV>>>I ([2]; pH 5-6 and 25° C.): < 2 min; epianastrephin to anastrephin product ratio of hydrolysis ([2]; pathways II and III, FIG. 4): ~2.5; time over which suspensolide was hydrolyzed (1H-NMR) [3]: ~3 h

With `C=CC1(C)CCCC2(C)OC(=O)CC12` (stereo not drawn) [“cis-fused” anastrephin] as the molecule, how does the “distribution of products (rel. % of loss; x±s; n=6)” value [1] read?
The value was 5.8±4.2%.

With `C=CC1(C)CCCC2(C)OC(=O)CC12` (stereo not drawn) [“cis-fused” epianastrephin] as the molecule, how does the “distribution of products (rel. % of loss; x±s; n=6)” value [1] read?
Its value is 1.1±0.5%.

Which “distribution of products (rel. % of loss; x±s; n=6)” value [1] does the source give for “γ-hydroxy acid of anastrephin [anastrephin γ-hydroxy acid]” here?
The value was 38.6±5.1%.

With “γ-hydroxy acid of epianastrephin [epianastrephin γ-hydroxy acid]” as the molecule, how does the “distribution of products (rel. % of loss; x±s; n=6)” value [1] read?
The value was 3.6±2.3%.
